Source: patent US20240294551A1 (AMGEN INC., priority 2022, published 2024)

Key:
[1] = system: Phosphorylation of ERK1/2 in AsPC-1 cells; experiment: Phospho-ERK1/2 MSD Assay; assay type: cell-based, human; details: Homo sapiens, ASPC1, 2 h, read-out: 2 h p-ERK (AsPC-1 cells), IC50
Outline: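 Read-out: MSD electrochemiluminescent detection of phosphorylated ERK1/2 in whole-cell lysates, fitted to a 4-parameter logistic curve for IC50. Prior to lysis, AsPC-1 cells (25,000 per well) received a 2 h compound dose-response at 37 °C.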

SW620 cells = experiment: SW620 CTG Assay (CellTiter-Glo cell viability); assay type: cell-based, human; details: Homo sapiens, SW-620; SW620, 72 h; third value of the cell; read-out: G12D/C/V Cell Proliferation CTG (72 h) SW620
Outline: (§1)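 IC50 values derive from 4-parameter logistic fits of CellTiter-Glo luminescence, expressed relative to DMSO. Compound dilution series were applied to overnight-seeded AsPC-1 or SW620 cells (RPMI 1640, 10% FBS) for 72 h at 37 °C, 5% CO2.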

AsPC-1 cells = experiment: AsPC-1 CTG Assay (CellTiter-Glo cell viability); assay type: cell-based, human; details: Homo sapiens, ASPC1, 72 h, AsPC-1, 72 h; first value of the cell; read-out: G12D/C/V Cell Proliferation CTG (72 h) AsPC-1
Outline: as §1

[2] = system: p-ERK in PANC 04.03 tumor-bearing mice; experiment: Tumor Pharmacodynamic Assay (p-ERK inhibition in PANC 04.03 tumors); assay type: in vivo; details: Mus musculus; PANC 04.03 tumor-bearing female athymic nude mice; single oral dose 100 mg/kg; tumors harvested 2 hr later; relative to vehicle group
Protocol: Tumor Pharmacodynamic Assays
Inhibitor pharmacodynamic effects were assessed in PANC 04.03 tumor-bearing mice. PANC 04.03 tumor cells (5.0E+06 cells) were injected subcutaneously into the flank of female athymic nude mice in a mixture with Matrigel (BD Bioscience). Mice received a single oral dose of either vehicle or inhibitor (100 mg/kg) when the average tumor size reached -300-600 mm^3 (n=3/group) and harvested 2 hours later. Tumor samples were collected, snap frozen, and processed for analysis by pulverizing with a cryoPREP® Dry Impactor (Covaris). Pulverized samples were resuspended in RIPA lysis buffer containing protease and phosphatase inhibitors and homogenized. Cleared lysates were analyzed using phospho-ERK1/2 and total ERK1/2 whole cell lysate kits (Meso Scale Discovery) according to the manufacturer's protocol. Phospho-ERK1/2 signal was normalized to total ERK1/2 signal for a given sample, and percent inhibition of p-ERK was calculated relative to the vehicle group.

[3] = biological target: His-tagged KRAS G12D protein (Homo sapiens (Human), UniProt P01116, G12D); experiment: KRAS G12D TR-FRET Assay; assay type: binding; details: read-out: KRAS G12D Binding IC50
Outline: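 Each incubation ran at room temperature: enzyme with compound for 30 minutes, peptide for one hour, and detection reagents (0.4 nM europium anti-6×His, 5 nM streptavidin-d2) for one hour more. Protein and peptide stocks were each diluted to 20 nM before addition.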

[4] = biological target: GDP-bound KRAS protein (aa 1-169), containing both G12D and C118A amino acid substitutions (Homo sapiens (Human), UniProt P01116, C118A/G12D); experiment: KRAS G12D Coupled Nucleotide Exchange Assay; assay type: biochemical; details: read-out: KRAS G12D Coupled Exchange IC50
MIA PaCa-2 cells = experiment: MIA PaCa-2 CTG Assay (CellTiter-Glo cell viability); assay type: cell-based, human; details: Homo sapiens; Mia PaCa-2, 72 h; second value of the cell; read-out: G12D/C/V Cell Proliferation CTG (72 h) Mia PaCa-2
Outline: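 IC50 values come from a 4-parameter logistic fit of CellTiter-Glo luminescence, normalized to DMSO control, after 72 h compound exposure at 37° C, 5% CO2. Cells grew in RPMI 1640 plus 10% FBS and were seeded at 1.67E+04 cells/mL one night before dosing.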

Chain of GDP-bound KRAS protein (aa 1-169), containing both G12D and C118A amino acid substitutions (P01116 other isoform, or with tags, fused parts or gaps G12D/C118A): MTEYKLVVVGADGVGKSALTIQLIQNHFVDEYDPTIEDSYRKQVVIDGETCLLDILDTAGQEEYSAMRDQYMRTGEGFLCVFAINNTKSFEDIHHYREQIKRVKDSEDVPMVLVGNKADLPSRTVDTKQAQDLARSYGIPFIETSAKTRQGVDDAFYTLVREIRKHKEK
Chain of His-tagged KRAS G12D protein (P01116 other isoform, or with tags, fused parts or gaps G12D): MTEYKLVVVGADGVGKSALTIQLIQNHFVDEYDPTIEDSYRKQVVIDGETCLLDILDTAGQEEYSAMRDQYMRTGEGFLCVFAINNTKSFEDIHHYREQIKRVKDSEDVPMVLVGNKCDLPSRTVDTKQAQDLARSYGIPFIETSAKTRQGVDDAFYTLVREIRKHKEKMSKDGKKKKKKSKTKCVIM

Compound | IC50 [1] [nM] | IC50 (SW620 cells) [nM] | IC50 (AsPC-1 cells) [nM] | inhibition in vivo at 100 mg/kg [2] [%] | IC50 [3] [nM] | IC50 [4] [nM] | IC50 (MIA PaCa-2 cells) [nM]
O[C@@H]1c2ncc(o2)CCc2c(Cl)cc3[nH]ncc3c2-c2ncc3c(nc(OC[C@@]45CCCN4C[C@H](F)C5)nc3c2F)N2CCC[C@@H]1C2 [Example 233] | 1 | 1 | 2 | 23 | 4 | 3 | 
C[C@@]12CCCCN(C1)c1nc(OC[C@@]34CCCN3C[C@H](F)C4)nc3c(F)c(ncc13)-c1c(c(Cl)cc3[nH]ncc13)CCCCC(=O)N2 [Example 166, (26R)-18-chloro-32-fluoro-4-(((2R,7aS)-2-fluorotetrahydro-1H-pyrrolo[1,2-a]pyrrol-7a(5H)-yl)methoxy)-26-methyl-1,3,5,9,14,15,25-heptaazahexacyclo [24.4.1.1~6,10~.0~2,7~.0~11,19~.0~12,16~]dotriaconta-2,4,6,8,10(32),11,13,16,18-nonaen-24-one] | 16.2 |  | 68 | 63 | 5 | 3 | 90
CN1CCC[C@H]1COc1nc2c3cnc(c(F)c3n1)-c1c(c(Cl)cc3[nH]ncc13)CCCOC(=O)O[C@]1(C)COCCN2C1 [Example 181, (26S)-18-chloro-32-fluoro-26-methyl-4-(((2S)-1-methyl-2-pyrrolidinyl)methoxy)-23,25,28-trioxa-1,3,5,9,14,15-hexaazahexacyclo[24.4.1.1~6,10~.0~2,7~.0~11,19~.0~12,16~]dotriaconta-2,4,6,8,10(32),11,13,16,18-nonaen-24-one] | 18.8 | 8 |  | 65 | 6 | 3 | 10
O=C1COCCCc2c(Cl)cc3[nH]ncc3c2-c2ncc3c(nc(OC[C@@]45CCCN4C[C@H](F)C5)nc3c2F)N2CC[C@H]3CCN1[C@H]3C2 [Example 168, (29S,33R)-18-chloro-34-fluoro-4-(((2R,7aS)-2-fluorotetrahydro-1H-pyrrolo[1,2-a]pyrrol-7a(5H)-yl)methoxy)-23-oxa-1,3,5,9,14,15,26-heptaazaheptacyclo[24.5.2.1~6,10~.0~2,7~.0~11,19~.0~12,16~.0~29,33~]tetratriaconta-2,4,6,8,10(34),11,13,16,18-nonaen-25-one] | 1.3 | 3 | 10 | 65 | 3 | 1 | 
C[C@@]12CCCN(C1)c1nc(OC[C@@]34CCCN3C[C@H](F)C4)nc3c(F)c(ncc13)-c1cccc3ccc(F)c(c13)CCCC(=O)N2 [Example 7, (15R)-22,31-Difluoro-8-(((2R,7aS)-2-fluorotetrahydro-1H-pyrrolo[1,2-a]pyrrol-7a(5H)-yl)methoxy)-15-methyl-3,7,9,11,16-pentaazahexacyclo[19.7.1.1˜2,6˜.1˜11,15˜.0˜5,10˜.0˜25,29˜]hentriaconta-1(28),2(31),3,5,7,9,21,23,25(29),26-decaen-17-one bis(2,2,2-trifluoroacetate)] | 260 |  |  | 21 | 15 | 15 | 
C[C@@]12CCCN(C1)c1nc(OC[C@@]34CCCN3C[C@H](F)C4)nc3c(F)c(c(F)cc13)-c1cc(O)cc3ccc(F)c(c13)CCCC(=O)N2 [Example 15, (15R)-3,22,31-Trifluoro-8-(((2R,7aS)-2-fluorotetrahydro-1H-pyrrolo[1,2-a]pyrrol-7a(5H)-yl)methoxy)-27-hydroxy-15-methyl-7,9,11,16-tetraazahexacyclo[19.7.1.1˜2,6˜.1˜11,15˜.0˜5,10˜.0˜25,29˜]hentriaconta-1(28),2(31),3,5,7,9,21,23,25(29),26-decaen-17-one bis(2,2,2-trifluoroacetate)] | 19 | 80 | 141 | 0 | 4 | 3 | 
O=C1OCCc2c(Cl)cc3[nH]ncc3c2-c2ncc3c(nc(OC[C@@]45CCCN4C[C@H](F)C5)nc3c2F)N2CCO[C@]3(C2)C[C@H](C3)O1 [Example 248, (1R,3R)-10-chloro-32-fluoro-24-(((2R,7aS)-2-fluorotetrahydro-1H-pyrrolo[1,2-a]pyrrol-7a(5H)-yl)methoxy)-4,6,30-trioxa-13,14,19,23,25,27-hexaazaheptacyclo[25.3.1.1~1,3~.1~18,22~.0~9,17~.0~12,16~.0~21,26~]tritriaconta-9,11,14,16,18(32),19,21,23,25-nonaen-5-one] | 7.8 |  | 13 | 85 | 4 | 2 | 7
C[C@@]12CCCN(C1)c1nc(OC[C@@]34CCCN3C[C@H](F)C4)nc3c(F)c(ncc13)-c1cc(O)cc3ccc(F)c(c13)CCCC(=O)N2 [Example 4, (15R)-22,31-Difluoro-8-(((2R,7aS)-2-fluorotetrahydro-1H-pyrrolo[1,2-a]pyrrol-7a(5H)-yl)methoxy)-27-hydroxy-15-methyl-3,7,9,11,16-pentaazahexacyclo[19.7.1.1˜2,6˜.1˜11,15˜.0˜5,10˜.0˜25,29˜]hentriaconta-1(28),2(31),3,5,7,9,21,23,25(29),26-decaen-17-one bis(2,2,2-trifluoroacetate)] | 3 | 7 | 14 |  | 4 | 2 | 5
Cc1cc2[nH]ncc2c2c1[C@H]1C[C@H]1COC(=O)O[C@@H]1CCCN(C1)c1nc(OC[C@@]34CCCN3C[C@H](F)C4)nc3c(F)c-2ncc13 [Example 110] | 4 | 10 | 80 |  | 3 | 2 | 20
C[C@@]12COCCN(C1)c1nc(OCC34CCCN3CCC4)nc3c(F)c(ncc13)-c1c(c(Cl)cc3[nH]ncc13)CCCOC(=O)O2 [Example 209, (26S)-18-chloro-32-fluoro-26-methyl-4-(tetrahydro-1H-pyrrolo[1,2-a]pyrrol-7a(5H)-ylmethoxy)-23,25,28-trioxa-1,3,5,9,14,15-hexaazahexacyclo[24.4.1.1~6,10~.0~2,7~.0~11,19~.0~12,16~]dotriaconta-2,4,6,8,10(32),11,13,16,18-nonaen-24-one] | 3.9 | 3 | 3 | 63 | 5 | 3 | 
O=C1OCCCc2c(Cl)cc3[nH]ncc3c2-c2ncc3c(nc(OC[C@@]45CCCN4C[C@H](F)C5)nc3c2F)N2CCC[C@H](C2)O1 [Example 115] | 10 | 27.4 | 60 |  | 3 | 1 | 60
O=C1OCCCc2c(Cl)cc3[nH]ncc3c2-c2ncc3c(nc(OC[C@@]45CCCN4C[C@H](F)C5)nc3c2F)N2CC[C@H]3CCN1[C@H]3C2 [Example 177, (28S,32R)-18-chloro-33-fluoro-4-(((2R,7aS)-2-fluorotetrahydro-1H-pyrrolo[1,2-a]pyrrol-7a(5H)-yl)methoxy)-23-oxa-1,3,5,9,14,15,25-heptaazaheptacyclo[23.5.2.1~6,10~.0~2,7~.0~11,19~.0~12,16~.0~28,32~]tritriaconta-2,4,6,8,10(33),11,13,16,18-nonaen-24-one] | 16.3 | 39 | 178 |  | 3 | 3 | 100
